Literature values, collected in US20050014827A1, “Synergistic medicament containing flavoring agents and having an antagonistic regenerative and/or protagonist decontamination effect” (priority 2000, published 2005).

Key:
HBV = settings: 70% isopropyl alcohol; 10 min; room temperature; serum dried onto plastic surface
reverse transcriptase = settings: 19% ethanol
HTLV-III/LAV/HIV = settings: 50% ethanol; 23° C.; 10 min; with and without additional protein loading

| SMILES | inactivation of 10^6 HBV doses infectious towards chimpanzees (HBV) | detection of viral reverse transcriptase (reverse transcriptase) | infectiousness of the virus (HTLV-III/LAV/HIV) |
| --- | --- | --- | --- |
| CC(C)O [isopropyl alcohol] | inactivated | – | – |
| CCO [ethanol] | – | can no longer be detected | destroys the infectiousness |
